Laboratory results from patent publication US12187723B2 (BRISTOL-MYERS SQUIBB COMPANY, priority 2019, dated 2025).

Target: T1, human TLR8 (Homo sapiens, UniProt Q9NR97)
T1 construct: host or cells: HEK-Blue cells
T1 sequence (Q9NR97 27-1041): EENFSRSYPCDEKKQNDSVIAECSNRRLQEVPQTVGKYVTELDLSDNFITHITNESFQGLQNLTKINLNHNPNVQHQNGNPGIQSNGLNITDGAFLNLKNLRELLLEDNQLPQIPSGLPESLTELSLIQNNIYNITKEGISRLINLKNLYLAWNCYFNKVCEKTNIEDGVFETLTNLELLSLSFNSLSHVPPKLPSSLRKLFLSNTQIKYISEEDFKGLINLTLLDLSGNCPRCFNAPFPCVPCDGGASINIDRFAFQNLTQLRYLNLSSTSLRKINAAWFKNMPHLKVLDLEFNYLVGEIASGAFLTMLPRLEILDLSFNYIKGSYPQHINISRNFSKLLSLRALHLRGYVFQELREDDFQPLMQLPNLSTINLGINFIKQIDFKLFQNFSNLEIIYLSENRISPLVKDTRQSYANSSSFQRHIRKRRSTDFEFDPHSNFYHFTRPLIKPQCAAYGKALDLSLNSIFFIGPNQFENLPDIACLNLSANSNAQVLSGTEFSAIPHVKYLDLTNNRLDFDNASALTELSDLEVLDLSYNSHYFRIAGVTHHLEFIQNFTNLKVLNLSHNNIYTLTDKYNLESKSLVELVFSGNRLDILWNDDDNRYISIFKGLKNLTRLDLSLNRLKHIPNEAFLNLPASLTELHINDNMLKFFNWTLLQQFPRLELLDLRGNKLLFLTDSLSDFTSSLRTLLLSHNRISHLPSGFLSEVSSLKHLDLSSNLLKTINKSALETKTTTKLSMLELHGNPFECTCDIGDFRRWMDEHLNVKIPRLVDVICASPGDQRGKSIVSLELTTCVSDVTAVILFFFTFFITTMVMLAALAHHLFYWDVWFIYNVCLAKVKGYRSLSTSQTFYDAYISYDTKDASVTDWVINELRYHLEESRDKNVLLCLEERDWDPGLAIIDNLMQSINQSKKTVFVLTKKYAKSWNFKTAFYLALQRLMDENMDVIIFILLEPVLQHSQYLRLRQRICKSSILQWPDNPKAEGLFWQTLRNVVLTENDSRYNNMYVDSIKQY
Test: TLR8 inhibition reporter assay (HEK-Blue SEAP)
Type: cell-based
Details: HEK-Blue cells overexpressing human TLR8, R848 15.9 μM, 22 hour incubation
How it was run: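 HEK-Blue cells overexpressing human TLR7, TLR8 or TLR9 carry a SEAP reporter driven by NF-κB/AP-1 sites. Compounds (0.05 nM–50 μM) were preincubated 30 min at room temperature, then cells were stimulated with gardiquimod 7.5 μM (TLR7), R848 15.9 μM (TLR8) or ODN2006 5 nM (TLR9) for 22 h at 37 °C.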

Row | SMILES | IC50 [nM]
1 | COc1cc(-c2cc3[nH]c(=O)n([C@@H]4CCCN(C5COC5)C4)c3cc2C)cn2ncnc12 [Example 72, (R)-5-(8-methoxy-[1,2,4]triazolo[1,5-a]pyridin-6-yl)-6-methyl-1-(1-(oxetan-3-yl)piperidin-3-yl)-1,3-dihydro-2H-benzo[d]imidazol-2-one] | 249
2 | COc1cc(-c2cc3[nH]c(=O)n([C@@H]4CCCN(CC5CC5)C4)c3cc2C)cn2ncnc12 [Example 55, (R)-1-(1-(cyclopropylmethyl)piperidin-3-yl)-5-(8-methoxy-[1,2,4]triazolo[1,5-a]pyridin-6-yl)-6-methyl-1,3-dihydro-2H-benzo[d]imidazol-2-one] | 19.5
3 | Cc1cc2c(cc1-c1cc(C)c3ncnn3c1)[nH]c(=O)n2[C@@H]1CCCN(CC2CCOC2)C1 (stereo partly drawn) [Example 43, 6-methyl-5-(8-methyl-[1,2,4]triazolo[1,5-a]pyridin-6-yl)-1-((3R)-1-((tetrahydrofuran-3-yl)methyl)piperidin-3-yl)-1,3-dihydro-2H-benzo[d]imidazol-2-one] | 57.7
4 | COc1cc(-c2ccc3c(c2)[nH]c(=O)n3C2CCN(C)CC2)cn2ncnc12 [Example 74, 5-(8-methoxy-[1,2,4]triazolo[1,5-a]pyridin-6-yl)-1-(1-methylpiperidin-4-yl)-1,3-dihydro-2H-benzo[d]imidazol-2-one] | > 3130
5 | COc1cc(-c2cc3[nH]c(=O)n([C@H]4CC[C@@H](N(C)C(C)C)CC4)c3cc2C)cn2ncnc12 [Example 84, 1-((1s,4s)-4-(isopropyl(methyl)amino)cyclohexyl)-5-(8-methoxy-[1,2,4]triazolo[1,5-a]pyridin-6-yl)-6-methyl-1,3-dihydro-2H-benzo[d]imidazol-2-one] | 9.69
6 | COc1cc(-c2cc3[nH]c(=O)n([C@H]4CC[C@@H](NCC(C)C)CC4)c3cc2C)cn2ncnc12 [Example 61, 1-((1s,4s)-4-(isobutylamino)cyclohexyl)-5-(8-methoxy-[1,2,4]triazolo[1,5-a]pyridin-6-yl)-6-methyl-1,3-dihydro-2H-benzo[d]imidazol-2-one] | 2.35
7 | COc1cc(-c2ccc3c(c2)[nH]c(=O)n3C2CCN(C(C)C)CC2)cn2ncnc12 [Example 77, 1-(1-isopropylpiperidin-4-yl)-5-(8-methoxy-[1,2,4]triazolo[1,5-a]pyridin-6-yl)-1,3-dihydro-2H-benzo[d]imidazol-2-one] | > 3130
8 | Cc1cc2c(cc1-c1cc(C)c3ncnn3c1)[nH]c(=O)n2[C@@H]1CCCN(Cc2cccnc2)C1 [Example 46, (R)-6-methyl-5-(8-methyl-[1,2,4]triazolo[1,5-a]pyridin-6-yl)-1-(1-(pyridin-3-ylmethyl)piperidin-3-yl)-1,3-dihydro-2H-benzo[d]imidazol-2-one] | 42.4
9 | Cc1cc2c(cc1-c1cc(C)c3ncnn3c1)[nH]c(=O)n2C1CCN(CC(=O)N(C)C)CC1 [Example 91, N,N-dimethyl-2-(4-(6-methyl-5-(8-methyl-[1,2,4]triazolo[1,5-a]pyridin-6-yl)-2-oxo-2,3-dihydro-1H-benzo[d]imidazol-1-yl)piperidin-1-yl)acetamide] | > 3130
10 | CCC(C)N[C@H]1CC[C@@H](n2c(=O)[nH]c3cc(-c4cc(C)c5ncnn5c4)c(C)cc32)CC1 (stereo partly drawn) [Example 34, 1-((1s,4s)-4-(sec-butylamino)cyclohexyl)-6-methyl-5-(8-methyl-[1,2,4]triazolo[1,5-a]pyridin-6-yl)-1,3-dihydro-2H-benzo[d]imidazol-2-one] | 4.65
11 | COc1cc(-c2cc3[nH]c(=O)n([C@@H]4CCCN(C5CCOCC5)C4)c3cc2C)cn2ncnc12 [Example 70, (R)-5-(8-methoxy-[1,2,4]triazolo[1,5-a]pyridin-6-yl)-6-methyl-1-(1-(tetrahydro-2H-pyran-4-yl)piperidin-3-yl)-1,3-dihydro-2H-benzo[d]imidazol-2-one] | 117
12 | COc1cc(-c2cc3[nH]c(=O)n([C@H]4CC[C@@H](NC5COC5)CC4)c3cc2C)cn2ncnc12 [Example 59, 5-(8-methoxy-[1,2,4]triazolo[1,5-a]pyridin-6-yl)-6-methyl-1-((1s,4s)-4-(oxetan-3-ylamino)cyclohexyl)-1,3-dihydro-2H-benzo[d]imidazol-2-one] | 18.8
13 | COc1ncc(CN2CCC[C@H](n3c(=O)[nH]c4cc(-c5cc(C)c6ncnn6c5)c(C)cc43)C2)cn1 [Example 36, (S)-1-(1-((2-methoxypyrimidin-5-yl)methyl)piperidin-3-yl)-6-methyl-5-(8-methyl-[1,2,4]triazolo[1,5-a]pyridin-6-yl)-1,3-dihydro-2H-benzo[d]imidazol-2-one] | 37.5
14 | CCC(CC)CN1CCC[C@@H](n2c(=O)[nH]c3cc(-c4cc(OC)c5ncnn5c4)c(C)cc32)C1 [Example 73, (R)-1-(1-(2-ethylbutyl)piperidin-3-yl)-5-(8-methoxy-[1,2,4]triazolo[1,5-a]pyridin-6-yl)-6-methyl-1,3-dihydro-2H-benzo[d]imidazol-2-one] | 73.6
15 | Cc1cc2c(cc1-c1cc(C)c3ncnn3c1)[nH]c(=O)n2[C@@H]1CCCN(Cc2ncn(C)n2)C1 [Example 35, (R)-6-methyl-1-(1-((1-methyl-1H-1,2,4-triazol-3-yl)methyl)piperidin-3-yl)-5-(8-methyl-[1,2,4]triazolo[1,5-a]pyridin-6-yl)-1,3-dihydro-2H-benzo[d]imidazol-2-one] | 220
